Data taken from ChEMBL document CHEMBL3407363, “Vitamin D3 analogues that contain modified A- and seco-B-rings as hedgehog pathway inhibitors” (Eur J Med Chem, 2015).

How the values were obtained:
[1] = Inhibition of hedgehog signaling in mouse C3H10T1/2 cells assessed as reduction in Gli1 mRNA level at 5 uM after 24 hrs by quantitative PCR analysis relative to control; format: cell-based; settings: C3H 10T1/2, values are per cent of control
[2] = Inhibition of hedgehog signaling in mouse C3H10T1/2 cells assessed as reduction in Gli1 mRNA level after 24 hrs by quantitative PCR analysis; format: cell-based; settings: for inhibition: C3H 10T1/2; for IC50: C3H 10T1/2, 24 h
[3] = target: T1, Vitamin D3 receptor (Mus musculus, UniProt P48281); assay: Activation of VDR in mouse ASZ cells assessed as up-regulation of Cyp24A1 mRNA at 5 uM after 24 hrs by quantitative PCR analysis relative to control; format: ADME, cell-based
T1 sequence (P48281 whole entry): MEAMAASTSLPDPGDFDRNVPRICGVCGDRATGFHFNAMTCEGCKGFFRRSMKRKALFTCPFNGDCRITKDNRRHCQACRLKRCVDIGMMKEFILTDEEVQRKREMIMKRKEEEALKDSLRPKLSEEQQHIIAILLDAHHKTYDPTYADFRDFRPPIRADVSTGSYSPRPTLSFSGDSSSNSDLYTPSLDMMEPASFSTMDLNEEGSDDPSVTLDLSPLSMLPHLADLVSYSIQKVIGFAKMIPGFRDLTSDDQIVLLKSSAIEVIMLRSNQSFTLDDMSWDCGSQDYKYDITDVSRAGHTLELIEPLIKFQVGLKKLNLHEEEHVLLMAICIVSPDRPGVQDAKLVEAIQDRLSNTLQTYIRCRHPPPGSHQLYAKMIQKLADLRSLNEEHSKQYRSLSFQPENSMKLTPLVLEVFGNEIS

[4] = target: T2, Vitamin D3 receptor (Homo sapiens) (UniProt P11473); assay: Binding affinity to full length human VDR by fluorescent displacement assay
T2 sequence (whole entry): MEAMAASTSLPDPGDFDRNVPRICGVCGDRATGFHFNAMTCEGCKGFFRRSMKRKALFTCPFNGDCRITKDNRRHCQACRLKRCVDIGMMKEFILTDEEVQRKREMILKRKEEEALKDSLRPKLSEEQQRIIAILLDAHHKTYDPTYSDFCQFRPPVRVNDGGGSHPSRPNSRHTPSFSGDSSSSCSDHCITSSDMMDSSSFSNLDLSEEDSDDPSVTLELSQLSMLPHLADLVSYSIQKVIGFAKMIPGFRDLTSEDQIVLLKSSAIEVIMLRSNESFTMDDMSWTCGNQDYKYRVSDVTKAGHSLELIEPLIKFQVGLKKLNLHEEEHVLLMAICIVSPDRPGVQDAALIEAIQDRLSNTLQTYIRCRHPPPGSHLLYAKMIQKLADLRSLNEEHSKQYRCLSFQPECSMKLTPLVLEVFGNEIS

[5] = target: T1, Vitamin D3 receptor; assay: Activation of VDR in mouse ASZ cells assessed as up-regulation of Cyp24A1 mRNA at 2.5 uM after 24 hrs by quantitative PCR analysis relative to control; format: ADME, cell-based

CC(C)CCC[C@@H](C)[C@H]1CC[C@H]2[C@H](Nc3ccc(O)cc3)CCC[C@]12C
response, % of control [1]: 1.3%
inhibition [2]: Dose-dependent effect
IC50 [2]: 320 nM
Activity [3]: 3%
K [4]: > 100 µM

CCOC(=O)/C=C1\CCC[C@]2(C)[C@@H]([C@H](C)CCCC(C)C)CC[C@@H]12
response, % of control [1]: 107%

CC(C)CCC[C@@H](C)[C@H]1CC[C@H]2[C@@H](Nc3ccccc3O)CCC[C@]12C
response, % of control [1]: 2%
inhibition [2]: Dose-dependent effect
IC50 [2]: 1200 nM
Activity [3]: 4.4%
K [4]: > 100 µM

CC(C)CCC[C@@H](C)[C@H]1CC[C@H]2[C@@H](OC(=O)Cc3cccc(O)c3)CCC[C@]12C
response, % of control [1]: 1.8%
inhibition [2]: Dose-dependent effect
IC50 [2]: 790 nM
Activity [3]: 3.5%
K [4]: > 100 µM

CC(C)CCC[C@@H](C)[C@H]1CC[C@H]2[C@@H](OC(=O)/C=C/c3ccc(O)cc3)CCC[C@]12C
response, % of control [1]: 62.1%

CC(C)CCC[C@@H](C)[C@H]1CC[C@H]2[C@@H](NC(=O)c3cccc(O)c3)CCC[C@]12C
response, % of control [1]: 2.5%
inhibition [2]: Dose-dependent effect
IC50 [2]: 980 nM
Activity [3]: 1.8%
K [4]: > 100 µM

CC(C)CCC[C@@H](C)[C@H]1CC[C@H]2[C@@H](Nc3ccc(O)cc3)CCC[C@]12C
response, % of control [1]: 0.7%
inhibition [2]: Dose-dependent effect
IC50 [2]: 400 nM
Activity [3]: 2.7%
K [4]: > 100 µM

CC(C)CCC[C@@H](C)[C@H]1CC[C@H]2[C@@H](OC(=O)CCc3ccccc3O)CCC[C@]12C
response, % of control [1]: 47.4%

CC(C)CCC[C@@H](C)[C@H]1CC[C@H]2[C@H](CO)CCC[C@]12C
response, % of control [1]: 55.1%

CC(C)CCC[C@@H](C)[C@H]1CC[C@H]2[C@H](O)CCC[C@]12C
response, % of control [1]: 74%

CC(C)CCC[C@@H](C)[C@H]1CC[C@H]2[C@@H](OC(=O)CCc3ccc(O)cc3)CCC[C@]12C
response, % of control [1]: 20.1%

CC(C)CCC[C@@H](C)[C@H]1CC[C@@H]2[C@]1(C)CCC[C@@]2(O)c1cccc(O)c1
response, % of control [1]: 39.5%

CC(C)CCC[C@@H](C)[C@H]1CC[C@H]2C(c3cccc(O)c3)=CCC[C@]12C
response, % of control [1]: 37.2%

CC(C)CCC[C@@H](C)[C@H]1CC[C@H]2/C(=N/O)CCC[C@]12C
response, % of control [1]: 86.1%

CC(C)CCC[C@@H](C)[C@H]1CC[C@H]2[C@@H](OC(=O)/C=C/c3cccc(O)c3)CCC[C@]12C
response, % of control [1]: 57.2%

CC(C)CCC[C@@H](C)[C@H]1CC=C2[C@H](O)CCC[C@@]21C
response, % of control [1]: 90.1%

CC(C)CCC[C@@H](C)[C@H]1CC[C@H]2[C@H](CCO)CCC[C@]12C
response, % of control [1]: 2.8%
inhibition [2]: Dose-dependent effect
IC50 [2]: 2400 nM
Activity [3]: 1.3%
K [4]: > 100 µM

CC(C)CCC[C@@H](C)[C@H]1CC[C@H]2[C@@H](O)CCC[C@]12C
response, % of control [1]: 46.4%

CC(C)CCC[C@@H](C)[C@H]1CC[C@H]2[C@@H](OC(=O)CCc3cccc(O)c3)CCC[C@]12C
response, % of control [1]: 15.3%
inhibition [2]: Dose-dependent effect
IC50 [2]: 2600 nM
Activity [3]: 7.6%
K [4]: > 100 µM

CC(C)CCC[C@@H](C)[C@H]1CC[C@H]2[C@@H](OC(=O)c3cccc(O)c3)CCC[C@]12C
response, % of control [1]: 1.9%
inhibition [2]: Dose-dependent effect
IC50 [2]: 740 nM
Activity [3]: 1.9%
K [4]: > 100 µM

CC(C)CCC[C@@H](C)[C@H]1CC[C@H]2/C(=C/C(=O)Nc3cccc(O)c3)CCC[C@]12C
response, % of control [1]: 12.1%
inhibition [2]: Dose-dependent effect
IC50 [2]: 1000 nM
Activity [3]: 4.5%
K [4]: > 100 µM

CC(C)CCC[C@@H](C)[C@H]1CC[C@H]2/C(=C/C(=O)Nc3ccccc3O)CCC[C@]12C
response, % of control [1]: 1.1%
inhibition [2]: Dose-dependent effect
IC50 [2]: 1500 nM
Activity [3]: 14%
K [4]: > 100 µM

CC(C)CCC[C@@H](C)[C@H]1CC=C2C(=O)CCC[C@@]21C
response, % of control [1]: 63.4%

CC(C)CCC[C@@H](C)[C@H]1CC[C@H]2[C@H](c3cccc(O)c3)CCC[C@]12C
response, % of control [1]: 47.9%

CC(C)CCC[C@@H](C)[C@H]1CC[C@@H]2[C@@H](O)CCC[C@]12C
response, % of control [1]: 48.7%

CC(C)CCC[C@@H](C)[C@H]1CC[C@H]2[C@H](OC(=O)c3cccc(O)c3)CCC[C@]12C
response, % of control [1]: 30.6%
inhibition [2]: Dose-dependent effect
IC50 [2]: 3900 nM
Activity [3]: 1.6%
K [4]: > 100 µM

CC(C)CCC[C@@H](C)[C@H]1CC[C@H]2/C(=C/C(=O)Nc3ccc(O)cc3)CCC[C@]12C
response, % of control [1]: 1.8%
inhibition [2]: Dose-dependent effect
IC50 [2]: 1200 nM
Activity [3]: 4.4%
K [4]: > 100 µM

CC(C)CCC[C@@H](C)[C@H]1CC[C@H]2[C@@H](OC(=O)/C=C/c3ccccc3O)CCC[C@]12C
response, % of control [1]: 94.2%

CC(C)CCC[C@@H](C)[C@H]1CC[C@H]2[C@@H](Nc3cccc(O)c3)CCC[C@]12C
response, % of control [1]: 11.6%
inhibition [2]: Dose-dependent effect
IC50 [2]: 1000 nM
Activity [3]: 1.8%
K [4]: > 100 µM

C=C1CC[C@H](O)C/C1=C/C=C1\CCC[C@]2(C)[C@@H]([C@H](C)CCCC(C)C)CC[C@@H]12 [CHOLECALCIFEROL]
response, % of control [1]: 35.7%
inhibition [2]: Dose-dependent effect
IC50 [2]: 4100 nM
Activity [5]: 764%
K [4]: > 100 µM

CC(C)CCC[C@@H](C)[C@H]1CC[C@H]2/C(=C/C(=O)Nc3ccccc3)CCC[C@]12C
response, % of control [1]: 41.7%

CC(C)CCC[C@@H](C)[C@H]1CC[C@H]2[C@H](C(=O)c3cccc(O)c3)CCC[C@]12C
response, % of control [1]: 11%
inhibition [2]: Dose-dependent effect
IC50 [2]: 1800 nM
Activity [3]: 7.8%
K [4]: > 100 µM

CC(C)CCC[C@@H](C)[C@H]1CC[C@H]2/C(=C/CO)CCC[C@]12C
response, % of control [1]: 15.1%

CC(C)CCC[C@@H](C)[C@H]1CC[C@H]2C(=O)CCC[C@]12C
response, % of control [1]: 66.1%
